Experimental findings from patent publication EP4796530A1 (Biocells (Beijing) Biotech Co., Ltd., priority 2023, dated 2025) are described below.

Series [1] in a line: Mouse pharmacokinetics after intravenous administration (plasma and brain, LC-MS). Type of series: in vivo. The conditions noted are these: C57 mice, intravenous 5 mg/kg; for concentration at 120 min: brain after cardiac perfusion, read-out: brain drug concentration at 120 min; for half-life / AUC: plasma; for AUC: read-out: area under the curve (AUC) from 1 to 120 min.
In series [2] the target is T1, NLRP3 (Mus musculus, UniProt Q8R4B8). Briefly: Inhibition of APOE peptide-induced NLRP3 activation in J774A.1 cells, IL-1β release. As to conditions: J774.A1, 10 µM compound, 30 µg/mL APOE peptide. Further details: The mouse macrophage cell line J774A.1 was used, and LPS was used as the first signal; host or cells: J774A.1 mouse monocyte-macrophage cell line. The class given is cell-based. As to the method:
J774A.1 cells were plated in a 48-well plate at a density of 1.0×10^6 cells/mL, with 300 µL per well. Subsequently, NLRP3 was activated by APOE peptide. The cell culture medium comprises: DMEM (brand: Gibco, Cat. No.: C12430500) + 10% fetal bovine serum (brand: Gibco, Cat. No.: 10099-141) + 1% sodium pyruvate (brand: Gibco, Cat. No.: 11360-070) + 1% penicillin-streptomycin solution (brand: Solarbio, Cat. No.: P1400). The J774A.1 mouse monocyte-macrophage cell line was purchased from the Cell Resource Center of the Institute of Basic Medical Sciences of Chinese Academy of Medical Sciences (Resource No. 1101MOU-PUMC000222). APOE2/3 peptide 1-151 was obtained through recombinant protein expression and purification by Biocells (Beijing) Biotech Co., Ltd. The procedures were as follows: the sequence (SEQ ID NO: 1) shown below was inserted into the pET-28A plasmid and transformed into BL-21(DE3) expression strain; the expression of target protein was induced with IPTG at a low temperature; after collecting the bacteria via centrifugation, ultrasonic disruption was performed; and after centrifugation, the supernatant was purified by nickel ion affinity chromatography (AKTA pure), and then the product was concentrated by ultrafiltration and identified by BCA+protein electrophoresis. Sequence: [formula]
Experimental groups: a negative control group, an APOE treatment control group, and an example compound experimental group.
After the plated J774A.1 cells adhering to the plate, the culture medium was replaced. The culture medium of the APOE treatment control group was replaced with cell culture medium containing 30 µg/mL APOE peptide, the culture medium of the example compound experimental group was replaced with culture medium containing 30 µg/mL APOE peptide combined with the compounds, and the negative control group received cell culture medium. Then, all the groups were incubated overnight. 18 h later, the cell supernatants were collected for IL-1β detection.
Activation of NLRP3 by APOE peptide will result in release of mature IL-1β, and the release can be inhibited by NLRP3 inhibitors. Therefore, the relative change in the amount of IL-1β release may directly reflect NLRP3 inhibitory effect.
In this experimental example, effective inhibition refers to a reduction of 70% or more in the release amount, compared with the release amount of the positive control minus the negative control.

In series [3] the target is T1, NLRP3. Description: Inhibition curves (IC50) of canonical NLRP3 activation in J774A.1 cells, IL-1β release. Further details: The mouse macrophage cell line J774A.1 was used, and LPS was used as the first signal; host or cells: J774A.1 mouse monocyte-macrophage cell line. Type of series: cell-based. As to conditions: J774A.1 cell LPS+ATP activation model. As to the method: J774A.1 cells were plated in a 48-well plate at a density of 1.0×10^6 cells/mL, with 300 µL per well. Subsequently, NLRP3 was activated by LPS+ATP or LPS+Nig. […] ATP was purchased from Sigma, Cat. No.: L2654. Nig was purchased from Shanghai Yuanye Bio-Technology Co., Ltd., Cat. No.: S45490.
Experimental groups: a negative control group, an LPS-alone incubation control group, an LPS+ATP/Nig positive control group, and an example compound experimental group with different concentrations.
After the plated J774A.1 cells adhering to the plate, the culture medium was replaced. For all the groups except the negative control group, the culture medium was completely replaced with cell culture medium containing 1 µg/mL LPS. The negative control group received cell culture medium. Then, all the groups were incubated overnight. 18 h later, the culture medium was replaced again. The culture medium of the example compound experimental group was completely replaced with culture medium containing different concentrations of compounds; while the negative control group, the LPS-alone incubation control group, and the LPS+ATP/Nig positive control group received cell culture medium. 1 h later, the culture mediums of the LPS+ATP/Nig positive control group and the example compound experimental group with different concentrations were completely replaced with cell culture medium containing 5 mM ATP or 10 µM Nig. 1 h later, the cell supernatants were collected for IL-1β detection.
Therefore, the relative change in the amount of IL-1β release may directly reflect NLRP3 inhibitory effect. The inhibitory effect of the compounds varies with different concentrations, and based on this, an inhibition curve can be constructed, and the inhibitory effects of the compounds were assessed by IC50.

A short description of series [4]: Rat plasma pharmacokinetics after intravenous administration (LC-MS). Type of series: in vivo. As to conditions: SD rats, intravenous 2.5 mg/kg; for AUC: read-out: AUC from 1 to 1440 min. The protocol: SD rats were administered intravenously, at a dosage concentration of 2.5 mg/kg in each group. Blood was collected at the time points of 1 min, 30 min, 1 h, 2 h, 4 h, 6 h, and 24 h. The collected blood was centrifuged at 3000 rpm for 10 min at 4 °C to obtain plasma. Acetonitrile was added at a 1:3 volume ratio of plasma: acetonitrile to precipitate proteins. After centrifugation, the supernatant was collected and filtered. The concentration of the compound was detected using LC-MS (Agilent 1260-G6125, SIM mode).
Experimental groups: a vehicle control group, and a dosing group.

Series [5] addresses NLRP3 (Homo sapiens, UniProt Q96P20). Description: Inhibition curves (IC50) of canonical NLRP3 activation in healthy human whole blood, IL-1β release. The conditions noted are these: LPS+5 µM Nig canonical activation model. The class given is cell-based.
Method: 10 mL of human whole blood was collected intravenously aseptically, and plated into a 96-well plate, with 198 µL per well. Then, 2 µL of 100× gradient dilutions of the example compounds at specified concentrations were added, immediately followed by the addition of 10 µL of 21 µg/mL LPS gradient dilution. 3 h later, nigericin with a working concentration of 5 µM or 1 mM ATP was added. After stimulation for 1 h, the whole blood was collected and centrifuged to collect the supernatant. IL-1β in the sample supernatant was detected by ELISA method.
Experimental groups: a negative control group, an LPS-alone incubation control group, an LPS+Nig/ATP positive control group, and a 1 µM example compound experimental group.
10 mL of human whole blood was collected intravenously aseptically. The anticoagulant heparin sodium was added preemptively into a 50 mL centrifuge tube. The collected whole blood was directly plated in a 96-well plate, with 198 µL per well. […] IL-1β in the sample supernatant was detected by ELISA method.
Therefore, the relative change in the amount of IL-1β release may directly reflect NLRP3 inhibitory effect. The inhibitory effect of the compounds varies with different concentrations, and based on this, an inhibition curve can be constructed, and the inhibitory effect of the compounds were assessed by IC50.

The structures appear in SMILES notation.

T1 sequence (Q8R4B8 whole entry): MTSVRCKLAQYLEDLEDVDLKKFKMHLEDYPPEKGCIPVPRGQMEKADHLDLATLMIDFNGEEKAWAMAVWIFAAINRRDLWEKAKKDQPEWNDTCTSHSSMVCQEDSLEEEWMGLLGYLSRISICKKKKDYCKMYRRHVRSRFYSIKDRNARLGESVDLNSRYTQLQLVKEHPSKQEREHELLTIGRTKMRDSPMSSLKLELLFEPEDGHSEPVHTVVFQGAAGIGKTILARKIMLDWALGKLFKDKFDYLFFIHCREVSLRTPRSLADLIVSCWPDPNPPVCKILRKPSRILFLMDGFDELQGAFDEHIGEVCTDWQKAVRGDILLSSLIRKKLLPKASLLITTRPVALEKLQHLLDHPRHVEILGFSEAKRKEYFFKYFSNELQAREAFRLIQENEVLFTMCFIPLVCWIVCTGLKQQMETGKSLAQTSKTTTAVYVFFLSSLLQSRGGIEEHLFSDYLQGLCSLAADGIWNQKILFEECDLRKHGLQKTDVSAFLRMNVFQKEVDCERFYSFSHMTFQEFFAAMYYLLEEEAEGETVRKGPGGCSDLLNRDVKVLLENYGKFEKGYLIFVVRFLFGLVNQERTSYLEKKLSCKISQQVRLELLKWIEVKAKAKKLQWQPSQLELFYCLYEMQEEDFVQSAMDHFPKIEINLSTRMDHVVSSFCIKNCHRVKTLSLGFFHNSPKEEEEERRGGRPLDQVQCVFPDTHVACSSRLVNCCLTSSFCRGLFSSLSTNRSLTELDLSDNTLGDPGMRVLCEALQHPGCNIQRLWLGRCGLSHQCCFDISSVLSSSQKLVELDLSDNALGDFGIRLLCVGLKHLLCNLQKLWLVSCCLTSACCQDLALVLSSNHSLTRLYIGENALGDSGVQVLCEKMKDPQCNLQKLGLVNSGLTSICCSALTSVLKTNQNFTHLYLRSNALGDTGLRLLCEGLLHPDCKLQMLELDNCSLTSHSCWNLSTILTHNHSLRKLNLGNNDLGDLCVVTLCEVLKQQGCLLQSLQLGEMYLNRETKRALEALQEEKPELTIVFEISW
Sequence of NLRP3 (Homo sapiens, UniProt Q96P20) (Q96P20 whole entry): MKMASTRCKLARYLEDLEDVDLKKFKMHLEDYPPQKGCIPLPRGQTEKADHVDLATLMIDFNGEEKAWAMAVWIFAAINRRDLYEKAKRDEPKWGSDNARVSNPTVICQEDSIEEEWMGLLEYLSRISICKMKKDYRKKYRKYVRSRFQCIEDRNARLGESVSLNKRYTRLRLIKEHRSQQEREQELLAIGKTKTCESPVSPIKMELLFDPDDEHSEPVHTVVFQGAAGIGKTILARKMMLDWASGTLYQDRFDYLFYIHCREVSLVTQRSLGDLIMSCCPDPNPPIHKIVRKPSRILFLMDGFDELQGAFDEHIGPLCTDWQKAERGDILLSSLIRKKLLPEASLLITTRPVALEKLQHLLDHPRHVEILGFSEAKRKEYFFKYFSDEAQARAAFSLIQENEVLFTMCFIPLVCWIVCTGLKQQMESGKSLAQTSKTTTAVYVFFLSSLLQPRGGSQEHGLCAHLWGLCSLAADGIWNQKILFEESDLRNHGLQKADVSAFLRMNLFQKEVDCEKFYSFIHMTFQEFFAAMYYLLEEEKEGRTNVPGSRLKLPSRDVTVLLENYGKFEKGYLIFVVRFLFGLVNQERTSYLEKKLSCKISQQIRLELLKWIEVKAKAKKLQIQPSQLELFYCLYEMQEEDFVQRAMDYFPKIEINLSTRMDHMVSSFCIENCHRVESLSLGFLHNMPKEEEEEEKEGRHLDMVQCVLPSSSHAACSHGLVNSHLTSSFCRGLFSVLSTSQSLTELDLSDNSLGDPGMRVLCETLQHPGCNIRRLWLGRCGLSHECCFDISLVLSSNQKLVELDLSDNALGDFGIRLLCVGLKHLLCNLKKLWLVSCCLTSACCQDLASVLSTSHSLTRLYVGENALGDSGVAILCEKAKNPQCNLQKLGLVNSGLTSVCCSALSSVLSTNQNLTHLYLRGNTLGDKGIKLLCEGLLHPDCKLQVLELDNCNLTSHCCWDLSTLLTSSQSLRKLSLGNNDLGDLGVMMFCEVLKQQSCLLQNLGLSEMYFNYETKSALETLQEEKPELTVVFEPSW

What is called half-life is how long it takes for the measured level to halve. A higher half-life goes with slow decline. As a reminder, the AUC is concentration integrated over time. A word on the inhibition: it is the drop in the measured response relative to a control, in per cent. A higher inhibition goes with a strong effect. The IC50 is the midpoint of a concentration-inhibition curve. A lower IC50 goes with higher potency. Regarding `COc1ccc(S(=O)(=O)NC(=O)Nc2c3c(cc4c2CCC4)CCC3)cc1CN(C)C` [Example 3, 3-((dimethylamino)methyl)-N-((1,2,3,5,6,7-hexahydro-s-indacen-4-yl)carbamoyl)-4-methoxybenzenesulfonamide], in series [1], the concentration at 120 min is 35500 ng/mL, the half-life was found to be 63 min and the area under the curve (AUC) came out at 257000 ng·h/mL. The compound also gave an inhibition at 10 µM at NLRP3 [2] of no less than 70%. The concentration for half-maximal inhibition (IC50) against NLRP3 [3] was determined as 203 nM.

With `CN(C)Cc1cc(S(=O)(=O)NC(=O)Nc2c3c(cc4c2CCC4)CCC3)ccc1O` [Example 5, 3-((dimethylamino)methyl)-N-((1,2,3,5,6,7-hexahydro-s-indacen-4-yl)carbamoyl)-4-hydroxybenzenesulfonamide], in series [1], the concentration at 120 min worked out at 3870 ng/mL, the half-life came out at 138 min and the AUC stood at 67400 ng·h/mL. In series [4], the half-life came out at 116 min and the area under the curve (AUC) worked out at 33900 ng·h/mL. Also, the inhibition at 10 µM on NLRP3 [2] is no less than 70%. For the same compound, it took 224 nM to reach half-maximal inhibition on NLRP3 [3] (IC50).

For the compound `CN(C)Cc1cccc(S(=O)(=O)NC(=O)Nc2c3c(cc4c2CCC4)CCC3)c1N` [Example 19, 2-amino-3-((dimethylamino)methyl)-N-((1,2,3,5,6,7-hexahydro-s-indacen-4-yl)carbamoyl)benzenesulfonamide], the IC50 against NLRP3 [5] came out at 1270 nM. Also, in series [1], the concentration at 120 min stood at 242 ng/mL, the half-life worked out at 139 min and the AUC came out at 14700 ng·h/mL. Besides, in series [4], the half-life worked out at 231 min and the AUC amounted to 56500 ng·h/mL. This compound displayed an inhibition at 10 µM against NLRP3 [2] of no less than 70%. The IC50 at NLRP3 [3] came to 114 nM.
